Laboratory results taken from ChEMBL document CHEMBL1147687, “Identification and characterization of amino-piperidinequinolones and quinazolinones as MCHr1 antagonists” (Bioorg Med Chem Lett, 2006).

Key:
[1] = target: T1, Melanin-concentrating hormone receptor 1 (Homo sapiens, UniProt Q99705); assay: Inhibition of MCH-mediated calcium release in whole IMR32 cells by FLIPR; assay type: functional, cell-based, IMR-32
[2] = target: T1, Melanin-concentrating hormone receptor 1; assay: Displacement of [125I]MCH from MCHr1 expressed in IMR32 cells; assay type: cell-based, IMR-32
[3] = target: Voltage-gated inwardly rectifying potassium channel KCNH2 (Homo sapiens, UniProt Q12809); assay: Binding affinity to hERG stably transfected in HEK293 cells; assay type: cell-based
[4] = AUC in DIO mouse plasma at 10 mg/kg; assay type: ADME, organism-based; design: dose 10 mg/kg
[5] = Cmax in DIO mouse brain at 10 mg/kg; assay type: ADME, organism-based; design: dose 10 mg/kg
[6] = Cmax in DIO mouse plasma at 10 mg/kg; assay type: ADME, organism-based; design: dose 10 mg/kg
[7] = AUC in DIO mouse brain at 10 mg/kg; assay type: ADME, organism-based; design: dose 10 mg/kg
[8] = Half life in DIO mouse brain at 10 mg/kg; assay type: ADME, organism-based; design: dose 10 mg/kg
[9] = Brain to plasma AUC ratio in DIO mouse at 10 mg/kg; assay type: ADME, organism-based; design: dose 10 mg/kg; settings: read-out: Ratio AUC
[10] = Plasma half life in DIO mouse at 10 mg/kg; assay type: ADME, organism-based; design: dose 10 mg/kg

Chain of Voltage-gated inwardly rectifying potassium channel KCNH2 (Q12809 whole entry): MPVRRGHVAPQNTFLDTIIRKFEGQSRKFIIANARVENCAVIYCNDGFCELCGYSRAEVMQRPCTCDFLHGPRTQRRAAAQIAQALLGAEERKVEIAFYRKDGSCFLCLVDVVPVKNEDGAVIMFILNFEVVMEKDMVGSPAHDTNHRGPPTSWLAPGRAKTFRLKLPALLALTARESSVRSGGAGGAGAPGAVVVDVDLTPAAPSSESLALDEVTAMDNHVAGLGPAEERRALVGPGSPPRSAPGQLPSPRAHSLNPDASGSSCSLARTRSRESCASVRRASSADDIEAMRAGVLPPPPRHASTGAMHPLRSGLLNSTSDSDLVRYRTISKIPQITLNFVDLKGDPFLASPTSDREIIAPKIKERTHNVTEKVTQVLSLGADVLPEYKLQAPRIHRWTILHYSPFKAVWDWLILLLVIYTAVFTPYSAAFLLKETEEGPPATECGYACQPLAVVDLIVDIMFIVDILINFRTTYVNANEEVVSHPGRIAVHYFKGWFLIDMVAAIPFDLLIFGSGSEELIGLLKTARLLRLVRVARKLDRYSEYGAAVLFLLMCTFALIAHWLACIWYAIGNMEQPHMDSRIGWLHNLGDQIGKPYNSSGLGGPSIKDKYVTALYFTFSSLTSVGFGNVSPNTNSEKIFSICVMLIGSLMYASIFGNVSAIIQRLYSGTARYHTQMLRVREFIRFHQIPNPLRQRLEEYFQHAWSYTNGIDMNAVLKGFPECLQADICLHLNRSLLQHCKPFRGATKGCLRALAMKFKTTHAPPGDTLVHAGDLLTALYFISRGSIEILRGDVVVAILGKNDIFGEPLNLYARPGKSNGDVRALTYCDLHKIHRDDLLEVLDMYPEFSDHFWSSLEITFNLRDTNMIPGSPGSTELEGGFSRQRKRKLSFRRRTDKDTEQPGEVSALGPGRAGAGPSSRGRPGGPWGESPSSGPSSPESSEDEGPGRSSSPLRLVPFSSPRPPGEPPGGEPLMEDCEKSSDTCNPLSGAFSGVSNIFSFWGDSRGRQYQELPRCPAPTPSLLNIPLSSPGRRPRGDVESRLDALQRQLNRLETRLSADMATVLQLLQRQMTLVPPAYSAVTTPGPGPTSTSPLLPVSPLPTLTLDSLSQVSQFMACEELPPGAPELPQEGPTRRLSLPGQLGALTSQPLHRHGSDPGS
T1 sequence (Q99705 whole entry): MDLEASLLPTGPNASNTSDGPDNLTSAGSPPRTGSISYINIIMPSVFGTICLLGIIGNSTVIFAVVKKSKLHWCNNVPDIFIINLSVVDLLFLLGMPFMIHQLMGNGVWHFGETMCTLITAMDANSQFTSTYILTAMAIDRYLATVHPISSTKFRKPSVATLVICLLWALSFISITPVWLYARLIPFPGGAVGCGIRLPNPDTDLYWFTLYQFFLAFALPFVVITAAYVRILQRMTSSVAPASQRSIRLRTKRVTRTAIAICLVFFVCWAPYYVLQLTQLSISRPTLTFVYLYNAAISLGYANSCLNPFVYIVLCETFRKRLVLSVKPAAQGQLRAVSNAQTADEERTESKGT

Row | Compound | IC50 [1] [nM] | IC50 [2] [nM] | AUC [4] [ng·h/mL] | Cmax [5] [ng/mL] | Cmax [6] [ng/mL] | AUC [7] [ng·h/mL] | half-life [8] [h] | Kp [9] | half-life [10] [h] | Ki [3] [nM]
1 | O=c1nc(NC2CC3CCC(C2)N3Cc2ccc3c(c2)OCO3)c2cc(Cl)ccc2n1CC(F)(F)F (stereo not drawn) | 31 | 4 |  |  |  |  |  |  |  | 120
2 | COC(=O)c1c(NC2CCN(Cc3ccc4c(c3)OCO4)CC2)c2cc(Cl)ccc2n(C)c1=O | 452 | 97 |  |  |  |  |  |  |  | 1440
3 | CCCCCn1c(=O)nc(NC2CCN(Cc3ccc4c(c3)OCO4)CC2)c2cc(Cl)ccc21 | 50 | 12 |  |  |  |  |  |  |  | 135
4 | Cn1c(=O)cc(NC2CCN(Cc3ccc4c(c3)OCO4)CC2)c2cc(OC(F)F)ccc21 | 34 | 5 |  |  |  |  |  |  |  | > 2000
5 | Cn1c(=O)cc(NC2CCN(Cc3ccc4ccccc4c3)CC2)c2cc(Cl)ccc21 | 100 | 5 |  |  |  |  |  |  |  | 215
6 | Cn1c(=O)c(C#N)c(NC2CCN(Cc3ccc4ccccc4c3)CC2)c2cc(Cl)ccc21 | 194 | 12 |  |  |  |  |  |  |  | > 2000
7 | Cn1c(=O)nc(NC2CCN(Cc3ccc4ccccc4c3)CC2)c2cc(Cl)ccc21 | 72 | 7 |  |  |  |  |  |  |  | 160
8 | COc1ccc2c(c1)c(NC1CCN(Cc3ccc4c(c3)OCO4)CC1)cc(=O)n2C | 20 | 3 |  |  |  |  |  |  |  | 778
9 | O=c1cc(NC2CCN(Cc3ccc4c(c3)OCO4)CC2)c2cc(Cl)ccc2n1Cc1ccncc1 | 29 | 1.1 | 2100 | 200 | 680 | 730 | 2.5 | 0.29 | 2.3 | 355
10 | Cn1c(=O)cc(NC2CCN(Cc3ccc4c(c3)OCO4)CC2)c2cc(OC(F)(F)F)ccc21 | 104 | 34 |  |  |  |  |  |  |  | 1800
11 | O=c1cc(NC2CCN(Cc3ccc4ccccc4c3)CC2)c2cc(Cl)ccc2n1Cc1ccccn1 | 55 | 0.9 |  |  |  |  |  |  |  | 88
12 | Cn1c(=O)c(C(=O)N2CCCC2)c(NC2CCN(Cc3ccc4c(c3)OCO4)CC2)c2cc(Cl)ccc21 | 53 | 16 |  |  |  |  |  |  |  | > 2000
13 | N#Cc1c(NC2CCN(Cc3ccc4c(c3)OCO4)CC2)c2cc(Cl)ccc2[nH]c1=O | 20 | 15 |  |  |  |  |  |  |  | 420
14 | Cn1c(=O)nc(NC2CC3CCC(C2)N3Cc2ccc3c(c2)OCO3)c2cc(Cl)ccc21 (stereo in doubt; 4g) | 53 | 9 |  |  |  |  |  |  |  | 

Now from value to compound, other results behind:

Row | IC50 [1] [nM] | IC50 [2] [nM] | AUC [4] [ng·h/mL] | Cmax [5] [ng/mL] | Cmax [6] [ng/mL] | AUC [7] [ng·h/mL] | half-life [8] [h] | Kp [9] | half-life [10] [h] | Compound | Ki [3] [nM]
15 | 62 | 5 |  |  |  |  |  |  |  | O=c1nc(NC2CCN(Cc3ccc4ccccc4c3)CC2)c2cc(Cl)ccc2n1CC(F)(F)F | 150
16 | 29 | 2 |  |  |  |  |  |  |  | O=c1nc(NC2CCN(Cc3ccc4c(c3)OCO4)CC2)c2cc(Cl)ccc2n1CC(F)(F)F | 445
17 | 20 | 1.2 |  |  |  |  |  |  |  | O=c1cc(NC2CCN(Cc3ccc4c(c3)OCO4)CC2)c2cc(Cl)ccc2n1Cc1ccccn1 | 550
18 | 66 | 12 |  |  |  |  |  |  |  | Cn1c(=O)nc(NC2CCN(Cc3ccc4ncccc4c3)CC2)c2cc(Cl)ccc21 | 
19 | 62 | 5 | 5100 | 230 | 2200 | 650 | 1.9 | 0.13 | 1.6 | Cn1c(=O)nc(NC2CCN(Cc3ccc4c(c3)OCO4)CC2)c2cc(Cl)ccc21 | 150
20 | 26 | 4 |  |  |  |  |  |  |  | O=c1cc(NC2CCN(Cc3ccc4c(c3)OCO4)CC2)c2cc(Cl)ccc2[nH]1 | 
21 | 69 | 24 | 5900 | 160 | 1600 | 620 | 2 | 0.11 | 1.9 | Cn1c(=O)c(C#N)c(NC2CCN(Cc3ccc4c(c3)OCO4)CC2)c2cc(Cl)ccc21 | 
22 | 88 | 10 |  |  |  |  |  |  |  | Cn1c(=O)cc(NC2CCN(C/C=C/c3ccccc3)CC2)c2cc(Cl)ccc21 | 30
23 | 42 | 0.8 |  |  |  |  |  |  |  | O=c1cc(NC2CCN(Cc3ccc4c(c3)OCO4)CC2)c2cc(Cl)ccc2n1Cc1ccccc1 | 280
24 | 136 | 68 |  |  |  |  |  |  |  | Cn1c(=O)nc(NC2CC3CCC(C2)N3Cc2ccc3c(c2)OCO3)c2cc(Cl)ccc21 (stereo in doubt; 4i) | 
